Results: paper PMC3075257, “Evaluation of Multidrug Efflux Pump Inhibitors by a New Method Using Microfluidic Channels” (PLoS ONE, 2011)

Assays:
Format in all cases: cell-based
AcrAB-TolC = biological target: T1, AcrAB-TolC (Escherichia coli, UniProt P31224); assay: FDG influx and hydrolysis in wild-type against ΔacrB cells, microfluidic channel fluorescence microscopy; settings: 100 µg/ml FDG, LB, lactose-induced β-galactosidase, 15 min, 37°C
T1 construct: gene acrB; native chromosomal pump in intact cells, judged against ΔacrB and ΔtolC deletion mutants; with Multidrug efflux pump subunit AcrA; Outer membrane protein TolC

MexAB-OprM = biological target: T2, MexAB-OprM (Pseudomonas aeruginosa, UniProt P52002); assay: fluorescein efflux from E. coli cells loaded with FDG, microfluidic channel fluorescence microscopy; settings: ΔBC/pABM against vector control ΔBC/pV, 100 µg/ml FDG, LB, 15 min, 37°C; exported dye formed in the cell from FDG
T2 construct: gene mexB; full-length tripartite RND efflux pump from plasmid pMMB67HE::mexAB-oprM in E. coli MG1655 ΔacrBΔtolC, IPTG-induced; with Multidrug resistance protein MexA; Outer membrane protein OprM

MexXY-OprM = biological target: T3, MexXY-OprM (Pseudomonas aeruginosa, UniProt G3XCW2); assay: as above; settings: ΔBC/pXYM against vector control ΔBC/pV, 100 µg/ml FDG, LB, 15 min, 37°C; exported dye formed in the cell from FDG
T3 construct: gene mexY; full-length tripartite RND efflux pump from plasmid pMMB67HE::mexXY-oprM in E. coli MG1655 ΔacrBΔtolC, IPTG-induced; with Multidrug efflux RND transporter periplasmic adaptor subunit MexX; Outer membrane protein OprM
T3 sequence (G3XCW2 entry or part of it): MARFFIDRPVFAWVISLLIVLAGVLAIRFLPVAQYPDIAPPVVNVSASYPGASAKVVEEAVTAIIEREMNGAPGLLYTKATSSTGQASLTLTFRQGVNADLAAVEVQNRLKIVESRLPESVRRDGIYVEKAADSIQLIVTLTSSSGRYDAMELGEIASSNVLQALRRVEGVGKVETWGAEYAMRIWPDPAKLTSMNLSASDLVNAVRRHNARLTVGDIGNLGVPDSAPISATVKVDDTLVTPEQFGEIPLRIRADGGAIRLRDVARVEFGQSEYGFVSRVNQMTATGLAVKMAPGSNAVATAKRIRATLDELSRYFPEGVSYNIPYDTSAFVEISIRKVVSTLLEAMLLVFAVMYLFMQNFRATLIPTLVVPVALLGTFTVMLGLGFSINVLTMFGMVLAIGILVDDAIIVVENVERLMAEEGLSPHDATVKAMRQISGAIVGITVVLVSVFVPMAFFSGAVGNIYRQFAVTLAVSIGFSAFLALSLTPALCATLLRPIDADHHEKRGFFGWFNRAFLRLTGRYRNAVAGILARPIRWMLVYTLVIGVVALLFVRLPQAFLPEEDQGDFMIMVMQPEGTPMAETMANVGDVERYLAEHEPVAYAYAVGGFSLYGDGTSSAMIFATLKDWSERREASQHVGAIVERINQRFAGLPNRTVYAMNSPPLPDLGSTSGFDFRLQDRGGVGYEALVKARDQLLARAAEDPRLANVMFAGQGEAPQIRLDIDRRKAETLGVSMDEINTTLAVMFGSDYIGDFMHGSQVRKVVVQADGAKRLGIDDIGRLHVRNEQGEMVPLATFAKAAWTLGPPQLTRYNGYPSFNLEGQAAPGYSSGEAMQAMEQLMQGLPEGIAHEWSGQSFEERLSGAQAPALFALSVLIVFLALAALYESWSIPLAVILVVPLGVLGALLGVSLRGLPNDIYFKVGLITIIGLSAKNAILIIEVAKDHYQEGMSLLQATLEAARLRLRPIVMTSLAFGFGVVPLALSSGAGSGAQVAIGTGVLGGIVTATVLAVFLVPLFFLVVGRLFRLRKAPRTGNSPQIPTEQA
T3 sequence (G3XD21 entry or part of it, further chain): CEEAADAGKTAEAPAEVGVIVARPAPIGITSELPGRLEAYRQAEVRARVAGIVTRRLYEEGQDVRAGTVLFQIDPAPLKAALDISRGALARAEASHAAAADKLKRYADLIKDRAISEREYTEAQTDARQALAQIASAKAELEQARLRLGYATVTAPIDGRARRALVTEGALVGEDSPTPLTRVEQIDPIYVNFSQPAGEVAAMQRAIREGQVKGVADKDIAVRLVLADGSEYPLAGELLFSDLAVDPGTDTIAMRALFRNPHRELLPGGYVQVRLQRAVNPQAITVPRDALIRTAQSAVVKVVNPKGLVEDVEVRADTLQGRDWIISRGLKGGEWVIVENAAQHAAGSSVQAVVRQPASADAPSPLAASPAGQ
T3 sequence (Q51487 18-485, further chain): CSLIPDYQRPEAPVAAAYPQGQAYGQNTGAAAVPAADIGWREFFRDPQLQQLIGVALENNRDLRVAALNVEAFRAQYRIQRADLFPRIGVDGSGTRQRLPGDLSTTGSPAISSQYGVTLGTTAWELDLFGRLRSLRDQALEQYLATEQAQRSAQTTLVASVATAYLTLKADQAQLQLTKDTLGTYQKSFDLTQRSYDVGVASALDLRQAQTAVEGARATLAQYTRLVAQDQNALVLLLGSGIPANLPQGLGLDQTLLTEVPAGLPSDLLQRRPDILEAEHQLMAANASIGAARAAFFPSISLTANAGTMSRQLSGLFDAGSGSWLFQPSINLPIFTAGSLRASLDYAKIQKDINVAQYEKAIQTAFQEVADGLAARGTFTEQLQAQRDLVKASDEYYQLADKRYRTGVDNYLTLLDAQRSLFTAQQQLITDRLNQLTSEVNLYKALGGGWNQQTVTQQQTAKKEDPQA

T1 sequence (P0AE06 25-397): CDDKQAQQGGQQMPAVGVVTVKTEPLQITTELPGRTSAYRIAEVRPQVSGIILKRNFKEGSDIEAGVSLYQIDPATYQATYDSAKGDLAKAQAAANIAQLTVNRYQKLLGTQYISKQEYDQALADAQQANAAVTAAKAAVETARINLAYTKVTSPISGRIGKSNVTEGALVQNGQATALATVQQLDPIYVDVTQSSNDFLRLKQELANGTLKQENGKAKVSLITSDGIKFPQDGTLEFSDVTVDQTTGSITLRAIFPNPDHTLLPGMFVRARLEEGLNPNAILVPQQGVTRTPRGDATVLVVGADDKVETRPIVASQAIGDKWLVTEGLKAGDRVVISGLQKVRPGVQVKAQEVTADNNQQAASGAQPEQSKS
T1 sequence (P02930 23-493, further chain): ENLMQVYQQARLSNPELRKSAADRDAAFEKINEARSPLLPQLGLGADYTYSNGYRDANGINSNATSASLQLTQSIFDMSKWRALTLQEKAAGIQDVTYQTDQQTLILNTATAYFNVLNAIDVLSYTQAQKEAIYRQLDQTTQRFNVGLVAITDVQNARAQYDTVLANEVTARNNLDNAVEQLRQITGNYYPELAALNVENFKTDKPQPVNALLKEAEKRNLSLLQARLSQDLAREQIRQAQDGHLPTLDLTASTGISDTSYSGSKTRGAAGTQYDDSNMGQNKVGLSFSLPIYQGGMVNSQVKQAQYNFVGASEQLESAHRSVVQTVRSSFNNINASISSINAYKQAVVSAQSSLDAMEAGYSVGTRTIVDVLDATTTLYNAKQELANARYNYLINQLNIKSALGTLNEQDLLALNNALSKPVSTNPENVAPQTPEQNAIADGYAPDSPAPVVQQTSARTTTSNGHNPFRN
T1 sequence (P31224 whole entry): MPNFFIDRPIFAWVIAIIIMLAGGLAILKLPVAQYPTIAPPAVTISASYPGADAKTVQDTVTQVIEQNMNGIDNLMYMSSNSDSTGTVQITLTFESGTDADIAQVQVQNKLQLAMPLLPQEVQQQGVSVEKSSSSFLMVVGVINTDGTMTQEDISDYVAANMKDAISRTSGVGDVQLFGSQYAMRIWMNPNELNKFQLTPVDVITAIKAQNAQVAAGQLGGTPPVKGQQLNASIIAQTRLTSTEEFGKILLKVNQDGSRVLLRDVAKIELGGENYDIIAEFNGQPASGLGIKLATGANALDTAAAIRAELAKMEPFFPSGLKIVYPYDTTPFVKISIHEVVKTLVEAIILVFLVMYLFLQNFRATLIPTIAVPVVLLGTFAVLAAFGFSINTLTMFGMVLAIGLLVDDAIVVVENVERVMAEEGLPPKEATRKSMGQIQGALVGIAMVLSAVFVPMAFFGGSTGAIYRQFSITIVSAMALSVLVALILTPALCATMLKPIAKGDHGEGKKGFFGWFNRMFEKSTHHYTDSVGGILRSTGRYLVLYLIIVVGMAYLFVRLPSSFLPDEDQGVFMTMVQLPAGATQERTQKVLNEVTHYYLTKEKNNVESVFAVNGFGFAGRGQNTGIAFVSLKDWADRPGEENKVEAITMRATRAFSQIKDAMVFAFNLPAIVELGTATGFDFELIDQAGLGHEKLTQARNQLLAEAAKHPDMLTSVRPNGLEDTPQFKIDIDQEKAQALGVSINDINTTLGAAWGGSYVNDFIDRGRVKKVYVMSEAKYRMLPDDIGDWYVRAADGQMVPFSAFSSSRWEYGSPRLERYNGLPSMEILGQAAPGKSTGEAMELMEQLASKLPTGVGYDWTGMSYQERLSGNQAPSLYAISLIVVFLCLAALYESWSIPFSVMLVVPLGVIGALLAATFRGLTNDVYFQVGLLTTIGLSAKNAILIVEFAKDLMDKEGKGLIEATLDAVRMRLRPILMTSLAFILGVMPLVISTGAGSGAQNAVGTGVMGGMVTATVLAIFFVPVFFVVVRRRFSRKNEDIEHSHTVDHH

O=C1OC2(c3ccc(O[C@@H]4O[C@H](CO)[C@H](O)[C@H](O)[C@H]4O)cc3Oc3cc(O[C@@H]4O[C@H](CO)[C@H](O)[C@H](O)[C@H]4O)ccc32)c2ccccc21 [Fluorescein-di-β-D-galactopyranoside]
FDG influx and hydrolysis in wild-type against ΔacrB cells, microfluidic channel (AcrAB-TolC): AcrAB-TolC and the analogous RND pumps effectively prevented FDG influx in E. coli wild-type cells

O=C1OC2(c3ccc(O)cc3Oc3cc(O)ccc32)c2ccccc21 [fluorescein]
fluorescein efflux from E. coli cells loaded with FDG, microfluidic channel fluo (MexAB-OprM): The fluorescent medium was observed in ΔBC carrying pABM or pXYM | fluorescein efflux from E. coli cells loaded with FDG, microfluidic channel fluo (MexXY-OprM): The fluorescent medium was observed in ΔBC carrying pABM or pXYM
